Experimental data from US7816096B2, “Assay solution compositions and methods for GPCR arrays” (priority 2003, dated 2010).
Values belong to the compound of their own block, whether it stands above or below them.

What was measured:
[1] = target: neurotensin receptor Subtype-1 (NTR1) (Homo sapiens, UniProt P30989); conditions: 100 mM NaCl present or absent; 2 nM Bodipy-TMR-neurotensin 2-13
Method: (§1) For the binding assays, each individual array was incubated with 10 μl of a solution containing labeled ligand(s) at a particular concentration in the absence and presence of varying amounts (0-1000 nM) of unlabeled compounds. The binding buffer used for all experiments was Tris-HCl (50 mM, pH 7.4) containing 10 mM MgCl2, 0.1% BSA and 1 mM EDTA.
(§2) After executing the binding assays, the microarrays are washed and dried, and then examined using Genepix scanner 4000 (Axon Instruments, Union City, Calif.). Using Genepix software, resulting data is analyzed. Each data point in the plots represents the average of at least three replicate micospots. Using non-linear regression analysis (Graphpad PRISM, Graphpad Software Inc., San Diego, Calif.), one can estimate Kd and IC50.

NTR1 = NTR1 (Rattus norvegicus, UniProt P20789); conditions: cited from earlier work
[2] = target: T1, muscarinic receptor subtype 1 (M1) (Homo sapiens, UniProt P11229); test: multiplexed competitive binding assay on GPCR microarray; conditions: 1 uM unlabeled telenzepine; cocktail of labeled ligands incl. 2 nM Cy3B-telenezepine
T1 sequence (P11229 1-460): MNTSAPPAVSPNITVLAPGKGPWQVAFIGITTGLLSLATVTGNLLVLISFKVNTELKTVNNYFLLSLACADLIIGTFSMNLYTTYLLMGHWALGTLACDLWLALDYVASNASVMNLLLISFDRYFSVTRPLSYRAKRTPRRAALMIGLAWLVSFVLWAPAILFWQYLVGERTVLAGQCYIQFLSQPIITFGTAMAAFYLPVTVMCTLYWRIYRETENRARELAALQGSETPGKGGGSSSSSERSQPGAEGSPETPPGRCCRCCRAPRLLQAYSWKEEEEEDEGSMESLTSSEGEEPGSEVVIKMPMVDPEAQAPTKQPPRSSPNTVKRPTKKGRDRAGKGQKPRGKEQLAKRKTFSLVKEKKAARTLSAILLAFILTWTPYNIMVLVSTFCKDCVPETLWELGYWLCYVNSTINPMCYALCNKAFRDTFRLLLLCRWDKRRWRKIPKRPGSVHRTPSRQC
Method: FIGS. 2C & 2D, respectively, are graphs of the percent of total detected signal in the presence and absence of 1 μM telenzepine.
A single buffered binding solution composition, according to the invention—including for example, 50 mM Tris-HCl, pH 7.4, 10 mM MgCl2, 1 mM EDTA, 0.1 wt. % BSA—is used for multiplexed competitive binding assay. […] Telenzepine is an antagonist for M1 receptor alone.
as §1, §2

Sequence of NTR1 (P20789 whole entry): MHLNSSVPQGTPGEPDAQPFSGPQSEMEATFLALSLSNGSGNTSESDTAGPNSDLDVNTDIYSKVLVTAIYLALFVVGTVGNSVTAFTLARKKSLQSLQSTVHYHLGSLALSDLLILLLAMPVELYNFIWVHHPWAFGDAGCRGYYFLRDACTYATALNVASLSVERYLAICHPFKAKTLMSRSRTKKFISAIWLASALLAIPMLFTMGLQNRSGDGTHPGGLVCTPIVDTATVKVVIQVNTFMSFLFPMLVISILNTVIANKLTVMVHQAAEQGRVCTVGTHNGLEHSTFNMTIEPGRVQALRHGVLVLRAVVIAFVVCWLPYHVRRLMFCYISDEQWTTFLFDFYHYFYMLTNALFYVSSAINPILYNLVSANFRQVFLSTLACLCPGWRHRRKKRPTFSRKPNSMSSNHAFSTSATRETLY
Sequence of neurotensin receptor Subtype-1 (NTR1) (P30989 whole entry): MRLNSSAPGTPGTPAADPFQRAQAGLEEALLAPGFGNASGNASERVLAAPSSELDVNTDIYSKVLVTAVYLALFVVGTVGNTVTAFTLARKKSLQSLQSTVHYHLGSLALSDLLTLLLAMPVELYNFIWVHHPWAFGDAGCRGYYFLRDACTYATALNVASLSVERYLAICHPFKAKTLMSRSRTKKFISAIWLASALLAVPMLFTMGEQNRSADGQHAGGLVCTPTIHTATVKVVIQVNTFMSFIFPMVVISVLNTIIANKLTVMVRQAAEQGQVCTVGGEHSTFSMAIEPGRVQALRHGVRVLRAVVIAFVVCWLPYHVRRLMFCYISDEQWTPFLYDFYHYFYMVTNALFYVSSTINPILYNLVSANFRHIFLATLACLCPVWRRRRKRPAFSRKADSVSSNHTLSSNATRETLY

Structure (SMILES): [Cl-].[Na+] [NaCl]
effect on binding of BT-NT to NTR1 (total binding signal) [1]: strongly influences

Structure (SMILES): [Na+] [sodium ions]
IC50 (NTR1; read-out: IC50 for inhibition of binding of radio-labeled neurotensin to NTR1): 18 mM | inhibition of binding of radio-labeled neurotensin to NTR1 (NTR1; sodium ions at a concentration as low as about 20 mM): at least 50%

inhibition of the binding of labeled ligands to M1 receptors [2]: specific and selective inhibition
Structure (SMILES): Cc1scc2c1N(C(=O)CN1CCN(C)CC1)c1ccccc1NC2=O [telenzepine]
